Molecules are shown by their SMILES.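 Exposure lasted 48 hours, with cells grown in 96-well plates and compounds tested at five concentrations. GI50 is the concentration that inhibits growth by half.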 Calls of active or inactive are those of the source. No stated cut-off is given here; in the data, active = GI50 up to about 1.1 µM and inactive = higher. Some results are limits rather than exact numbers.

Among the test systems are M14; SW-620; SK-OV-3; HCT-15; SR; CCRF-CEM; RXF 393; OVCAR-3; K562; SK-MEL-5; UACC-257; SF-268; NCI-H23; NCI/ADR-RES; PC-3; TK-10; OVCAR-4; A498; EKVX.
Common to all, as to experiment: NCI tumour cell line growth inhibition, 48 h

For the molecule `COc1ccccc1-c1cc(=O)c2ccccc2n1C1CC1`, the GI50 with M14 is 4.4 µM (inactive); with SW-620, 3.13 µM (inactive); in the assay on SK-OV-3, 6.73 µM (inactive); in the assay with HCT-15 it was 2.55 µM; with SR, 2.95 µM (inactive); in the assay on CCRF-CEM, 4.83 µM (inactive). For the same molecule, the GI50 with RXF 393 was 1.84 µM (inactive); with OVCAR-3 it was 1.75 µM (inactive); in the assay on K562, 9.68 µM (inactive); in the assay on SK-MEL-5, 4.52 µM (inactive); with UACC-257, 8.2 µM (inactive); in the assay with SF-268, 5.01 µM (inactive). Moreover, the figures for the GI50 in the assay on NCI-H23, in the assay with NCI/ADR-RES and in the assay on PC-3 were 4.99 µM (inactive), 5.38 µM (inactive) and 4.15 µM (inactive), respectively.

Regarding `C[N+]1(C)CCC(C#N)(c2ccccc2)CC1`, the GI50 in the assay on M14 was > 100 µM (inactive); in the assay on SW-620 it was > 100 µM (inactive); in the assay with SK-OV-3, > 100 µM (inactive); in the assay with TK-10, > 100 µM (inactive); with HCT-15, greater than 100 µM; in the assay with SR, > 100 µM (inactive). In addition, the GI50 is 0.65 µM (active) in the assay on CCRF-CEM; > 100 µM (inactive) in the assay with OVCAR-4; > 100 µM (inactive) with RXF 393; > 100 µM (inactive) in the assay on K562; > 100 µM (inactive) in the assay on SK-MEL-5; > 100 µM (inactive) in the assay with A498. The GI50 in the assay with EKVX, with UACC-257, with SF-268, in the assay with NCI-H23 and in the assay with NCI/ADR-RES was > 100 µM (inactive) each time.

As for `CN(C=O)/C=C/c1cc(O)ccc1O`, the GI50 is 41.3 µM (inactive) with M14; 12.8 µM (inactive) in the assay with SW-620; > 86.1 µM (inactive) in the assay on SK-OV-3; 26.8 µM (inactive) with TK-10; 36.6 µM with HCT-15; 20.5 µM (inactive) in the assay with SR. The GI50 in the assay with CCRF-CEM is 18.7 µM (inactive); in the assay on OVCAR-4, 17.6 µM (inactive); in the assay on RXF 393, 18 µM (inactive); in the assay on OVCAR-3, 18.2 µM (inactive); in the assay with K562, 24.9 µM (inactive); in the assay with SK-MEL-5 it was 42 µM (inactive). Besides, the GI50 in the assay with A498 is > 68.2 µM (inactive); in the assay on EKVX, 40.6 µM (inactive); in the assay on UACC-257, 30.3 µM (inactive); with SF-268, 25.8 µM (inactive); with NCI-H23, 36.8 µM (inactive).

As to `COC(=O)c1cccc2cccc(C(=O)Nc3ccc(C)cc3C)c12`, the GI50 is > 100 µM (inactive) in the assay on M14; > 100 µM (inactive) in the assay on SW-620; > 100 µM (inactive) in the assay with SK-OV-3; > 100 µM (inactive) in the assay on TK-10; greater than 100 µM in the assay with HCT-15; 37.6 µM (inactive) in the assay on SR. The GI50 in the assay with CCRF-CEM was 3.72 µM (inactive); with OVCAR-4 it was 93.8 µM (inactive); in the assay with RXF 393 it was 39.3 µM (inactive); in the assay on OVCAR-3, 72.8 µM (inactive); in the assay with K562, > 100 µM (inactive); in the assay with SK-MEL-5, > 100 µM (inactive). Further, the GI50 is 33 µM (inactive) in the assay with A498; > 100 µM (inactive) with EKVX; > 100 µM (inactive) in the assay on UACC-257; > 100 µM (inactive) with SF-268; > 100 µM (inactive) with NCI-H23.

On to `N[C@H]1CCC[C@@H](O)C1O` (stereo partly specified), for which the GI50 in the assay with M14 was > 100 µM (inactive); in the assay on SW-620, > 100 µM (inactive); with SK-OV-3 it was > 100 µM (inactive); in the assay with HCT-15 it was greater than 100 µM; in the assay on SR, > 100 µM (inactive); in the assay on OVCAR-3, > 100 µM (inactive). In addition, the GI50 in the assay with K562, in the assay on SK-MEL-5, with A498, in the assay on EKVX, in the assay on UACC-257 and with SF-268 was > 100 µM (inactive) in each case. The GI50 in the assay on NCI-H23, in the assay with NCI/ADR-RES and in the assay with PC-3 was > 100 µM (inactive) throughout.

The values are drawn from ChEMBL document CHEMBL1201862, “PubChem BioAssay data set” (2004).
